Reference: patent publication US8951976B2, “Progression inhibitor for disease attributed to abnormal accumulation of liver fat” (Kissei Pharmaceutical Co., Ltd., priority 2004, dated 2015)

How the values were obtained:
SGLT2 = molecular target: T1, SGLT2 (Mus musculus, UniProt Q923I7); assay: Test to confirm inhibitory effect on accumulation of liver lipids in KKAy mice bearing fatty liver; type: in vivo, KKA^y mice
T1 construct: Using KKA^y mice (KKAy/Ta Jcl, CLEA Japan, Inc.) as experimental animals; tissue CLEA Japan, Inc. KKAy/Ta Jcl; host or cells: living KKAy mice (whole animal; SGLT2 acts in kidney)
T1 sequence (Q923I7 1-670): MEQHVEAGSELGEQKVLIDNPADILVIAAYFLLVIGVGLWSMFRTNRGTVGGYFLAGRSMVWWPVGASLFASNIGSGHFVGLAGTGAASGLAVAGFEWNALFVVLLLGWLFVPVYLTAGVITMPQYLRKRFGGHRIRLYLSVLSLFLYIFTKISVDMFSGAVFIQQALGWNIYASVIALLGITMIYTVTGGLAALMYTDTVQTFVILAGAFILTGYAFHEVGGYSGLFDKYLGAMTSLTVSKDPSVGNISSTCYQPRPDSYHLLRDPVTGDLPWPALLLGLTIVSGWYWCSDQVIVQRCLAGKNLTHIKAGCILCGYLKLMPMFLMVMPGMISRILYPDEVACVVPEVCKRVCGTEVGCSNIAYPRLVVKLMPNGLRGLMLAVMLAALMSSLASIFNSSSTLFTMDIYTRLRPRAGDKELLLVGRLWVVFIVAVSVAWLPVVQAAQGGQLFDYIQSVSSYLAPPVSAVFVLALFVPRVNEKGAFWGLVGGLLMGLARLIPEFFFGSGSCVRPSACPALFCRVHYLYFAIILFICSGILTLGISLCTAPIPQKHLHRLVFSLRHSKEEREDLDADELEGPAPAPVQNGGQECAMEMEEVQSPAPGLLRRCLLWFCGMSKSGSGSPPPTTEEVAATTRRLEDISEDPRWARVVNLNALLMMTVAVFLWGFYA
Description: Using KKA^y mice (KKAy/Ta Jcl, CLEA Japan, Inc.) as experimental animals, inhibitory effects on accumulation of lipids in liver based on SGLT2 inhibitory effects were evaluated. KKA^y mice bearing fatty liver were prepared as follows.
Female 10-week-old KKA^y mice were bred preparatorily for 4 weeks. During preparatory breeding until 4 days before grouping, the mice were fed on a pellet CE-2 diet for laboratory animal (CLEA Japan, Inc.) under free feeding. From 4 days before grouping, the food was changed to a powdered CE-2 diet for laboratory animal (CLEA Japan, Inc.). At the age of 14 weeks, body weight, blood glucose level and plasma alanine aminotransferase level (ALT) were measured for grouping. The mice were grouped (5 animals in each group) so that in any of these three laboratory values no significant difference was observed between the two groups. In the second group, the mice were fed on a powdered CE-2 diet for laboratory animal (CLEA Japan, Inc.) containing 1000 ppm of 2-(4-methoxybenzyl)phenyl 6-O-ethoxycarbonyl-β-D-glucopyranoside (hereinafter referred to as Compound A) as a SGLT2 inhibitor for 11 days, and then triglyceride contents in liver were measured.
Method of measurement of liver triglyceride content was described as follows. • 1) Ice-cold saline (Otsuka Pharmaceutical Co., Ltd.) was added to liver in the proportion of 4 mL of ice-cold saline to 1 g of the liver, and then a homogenized suspension was prepared in a pestle homogenizer. • 2) To 100 μL of the suspension 1), 800 μL of Folch reagent (chloroform:methanol=2:1) was added and mixed vigorously, and total lipids was extracted. • 3) The mixture 2) was centrifuged (3000 rpm, for 10 min, at room temperature) using a cooled centrifuge (KUBOTA8900, KUBOTA Corporation). • 4) The lower layer after centrifugation in 3) was collected and transferred to another container, and that is referred to as Solution (A). • 5) To the upper layer after centrifugation in 3), 150 μL of Folch reagent was added and mixed vigorously, and centrifugation by the operation identical to that in 3) was performed. […]

[1] = cited from earlier work

## CCOC(=O)OC[C@H]1O[C@@H](Oc2ccccc2Cc2ccc(OC)cc2)[C@H](O)[C@@H](O)[C@@H]1O [Compound A, 2-(4-methoxybenzyl)phenyl 6-O-ethoxycarbonyl-β-D-glucopyranoside]
SGLT2; administration to KKA^y mice bearing fatty liver, compared to drug-untreated mice
  lipid accumulation in liver: significantly suppressed
SGLT2; female KKA^y mice bearing fatty liver, diet containing 1000 ppm for 11 days, mean ± standard error of the mean, * significant (5% or less) vs drug-untreated group
  Liver triglyceride content: 25.4 ± 3.6* mg/g liver
SGLT2; orally administered to rat (so in the source), in comparison with no administration
  increase of lipid accumulative amount in liver: inhibited significantly

## CCOC(=O)C(C)(C)Oc1ccc(Cl)cc1 [clofibrate]
[1]; Patent Reference 22, while it lowers neutral fat or cholesterol in blood
  lipid accumulation in liver as a side effect: causes lipid accumulation in liver

## CCCCNC(=O)NS(=O)(=O)c1ccc(C)cc1 [tolbutamide]
[1]; non-Patent Reference 7
  suppressive effects on lipid accumulation in liver: does not exhibit suppressive effects
